Data taken from patent publication EP0085842A1, “Antimycosic agents” (BAYER AG, priority 1982, dated 1983).
In brackets after ≈: the same amount, converted by molar mass.

Experiments:
[1] = test system: Trichophyton mentagrophytes; assay: Antimycotic in-vivo activity (local) in experimental guinea pig trichophytosis; parameters: species or system Meerschweinchen; key: +++++: sehr gute Wirkung = keine Infektionszeichen am 12.-15.Tag p.i.; ++++: gute Wirkung = geringe Rötung, vereinzelt Schuppen; +++: Wirkung = Rötung, Schuppung, ohne Haarausfall; ++: schwache Wirkung = Rötung, Schuppung, Haarausfall; +: Spur Wirkung = flächiger Haarausfall, entzündliche Hautreaktion
Torulopsis glabrata = assay: Antimycotic in-vitro activity, serial dilution test (MIC); format: cell-based; details: Nakaseomyces glabratus; Fleischextrakt-Traubenzucker-Bouillon, 20°C, 24 to 96 h, inoculum 5 x 10^4 Keime/ml; read-out: MHK-Werte in γ/ml Nährmedium Torulopsis glabrata
Description: (§1) Versuchsbeschreibung: • Die in-vitro-Prüfungen wurden im Reihenverdünnungstest mit Keiminokula von durchschnittlich 5 x 10^4 Keimen/ml Substrat durchgeführt. Als Nährmedium dienten • a) für Dermatophyten und Schimmelpilze: Sabouraud's milieu d'epreuve • b) für Hefen: • Fleischextrakt-Traubenzucker-Bouillon.
(§2) Die Bebrütungstemperatur betrug 20°C, die Bebrütungsdauer lag bei 24 bis 96 Stunden bei Hefen und 96 Stunden bei Dermatophyten und Schimmelpilzen.

Candida albicans = assay: as above; format: cell-based; details: Fleischextrakt-Traubenzucker-Bouillon, 20°C, 24 to 96 h, inoculum 5 x 10^4 Keime/ml, read-out: MHK-Werte in γ/ml Nährmedium Candida albicans
Description: as §1, §2

Aspergillus fumigatus = assay: as above; format: cell-based; details: Sabouraud's milieu d'epreuve, 20°C, 96 h, inoculum 5 x 10^4 Keime/ml, read-out: MHK-Werte in γ/ml Nährmedium Aspergillus fumigatus
Description: as §1, §2

Microsporum canis = assay: as above; format: cell-based; details: Sabouraud's milieu d'epreuve, 20°C, 96 h, inoculum 5 x 10^4 Keime/ml, read-out: MHK-Werte in γ/ml Nährmedium Microsporum canis
Description: as §1, §2

Trichophyton mentagr. = assay: as above; format: cell-based, Trichophyton mentagrophytes; details: Sabouraud's milieu d'epreuve, 20°C, 96 h, inoculum 5 x 10^4 Keime/ml, read-out: MHK-Werte in γ/ml Nährmedium Trichophyton mentagr.
Description: as §1, §2

Candida-Zellen = assay: Antimycotic in-vivo activity (oral) in mouse candidosis; parameters: species or system Mäuse vom Typ SPF-CF1; key to Wirkung: +++++: sehr gute Wirkung = 90 % Überlebende am 6.Tag p.i.; ++++: gute Wirkung = 80 % Überlebende am 6.Tag p.i.; +++: Wirkung = 60 % Überlebende am 6.Tag p.i.; ++: schwache Wirkung = 40 % Überlebende am 6.Tag p.i.; +: Spur Wirkung = unter 40 % Überlebende am 6.Tag p.i.; k.W.: keine Wirkung; details: for Wirkung: mice infected i.v. with Candida, oral 50 - 100 mg/kg one hour before and seven hours after infection, survivors on day 6 p.i.; for Wirkung compared with known compounds (A), (B), (C) and (D): mouse candidosis, oral 50 - 100 mg/kg
Description: Mäuse vom Typ SPF-CF1 wurden intravenös mit 1 - 2 x 10^6 logarithmisch wachsenden Candida-Zellen, die in physiologischer Kochsalzlösung suspendiert werden, infiziert. Eine Stunde vor und sieben Sunden nach der Infektion werden die Tiere mit jeweils 50 - 100 mg/kg Körpergewicht der Präparate oral behandelt.
Unbehandelte Tiere starben 3 bis 6 Tage post infektionem. Die Überlebensrate am 6. Tag post infektionem betrug bei unbehandelten Kontrolltieren etwa 5 %.
+++++ = sehr gute Wirkung = 90 % Überlebende am 6.Tag p.i. ++++ = gute Wirkung = 80 % Überlebende am 6.Tag p.i. +++ = Wirkung = 60 % Überlebende am 6.Tag p.i. ++ = schwache Wirkung = 40 % Überlebende am 6.Tag p.i. + = Spur Wirkung = unter 40 % Überlebende am 6.Tag p.i. k.W. = keine Wirkung

[2] = local, 1 x daily from day 3 p.i., 15 %ige Lösung in Dimethylsulfoxid:Glycerin = 1:4, infection signs day 12-15 p.i.

Row | Compound | MIC (Torulopsis glabrata) | MIC (Candida albicans) | MIC (Aspergillus fumigatus) | MIC (Microsporum canis) | MIC (Trichophyton mentagr.) | Wirkung [1, 2] | Wirkung (Candida-Zellen) | Wirkung compared with known compounds (A), (B), (C) and (D) (Candida-Zellen) | Wirkung ([1]; local treatment, trichophytosis model)
1 | CC(C)(CF)C(O)(COc1ccc(F)cc1)Cn1cncn1 (stereo not shown) [Beispiel 1, 4-Fluor-2-(4-fluorphenoxymethyl)-3,3-dimethyl-1-(1,2,4-triazol-1-yl)-butan-2-ol] | 16 mg/L (≈ 51.4 µM) | < 1 mg/L | 8 mg/L (≈ 25.7 µM) | 8 mg/L (≈ 25.7 µM) | 4 mg/L (≈ 12.8 µM) | ++ | +++ (Wirkung = 60 % Überlebende am 6.Tag p.i.) | bessere Wirkung | –
2 | COCC(C)(C)C(O)(COc1ccc(Cl)cc1C)Cn1cncn1 (stereo not shown) [Beispiel 17] | 4 mg/L (≈ 11.3 µM) | < 1 mg/L | 4 mg/L (≈ 11.3 µM) | < 1 mg/L | < 1 mg/L | – | – | – | –
3 | CC(CF)(CF)C(O)(CCc1ccc(Cl)cc1Cl)Cn1ccnc1 (stereo not shown) [Beispiel 36] | 4 mg/L (≈ 10.6 µM) | < 1 mg/L | 8 mg/L (≈ 21.2 µM) | 4 mg/L (≈ 10.6 µM) | 2 mg/L (≈ 5.3 µM) | – | ++++ (gute Wirkung = 80 % Überlebende am 6.Tag p.i.) | bessere Wirkung | –
4 | CC(C)(C)C(O)(COc1ccc(Cl)cc1)Cn1ccnc1 (stereo not shown) [(A), reference compound] | 2 mg/L (≈ 6.48 µM) | < 1 mg/L | 32 mg/L (≈ 104 µM) | 16 mg/L (≈ 51.8 µM) | 8 mg/L (≈ 25.9 µM) | – | k.W. | – | –
5 | CC(CF)(CF)C(O)(CCc1ccc(Cl)cc1)Cn1ccnc1 (stereo not shown) [Beispiel 37] | 2 mg/L (≈ 5.83 µM) | 4 mg/L (≈ 11.7 µM) | 2 mg/L (≈ 5.83 µM) | 16 mg/L (≈ 46.7 µM) | 4 mg/L (≈ 11.7 µM) | – | ++++ (gute Wirkung = 80 % Überlebende am 6.Tag p.i.) | bessere Wirkung | –
6 | C=CC(C)(C)C(O)(COc1ccc(F)cc1)Cn1ccnc1 (stereo not shown) [Beispiel 40] | – | – | – | – | – | – | ++ (schwache Wirkung = 40 % Überlebende am 6.Tag p.i.) | bessere Wirkung | –
7 | CC(C)(CF)C(O)(CSc1ccccc1Cl)Cn1cncn1 (stereo not shown) [Beispiel 11] | 16 mg/L (≈ 46.5 µM) | < 1 mg/L | 8 mg/L (≈ 23.3 µM) | 4 mg/L (≈ 11.6 µM) | 2 mg/L (≈ 5.82 µM) | – | – | – | –
8 | CC(C)(C)C(O)(CSc1ccc(Cl)cc1)Cn1cncn1 (stereo not shown) [Beispiel 3, 2-(4-Chlorphenylthiomethyl)-3,3-dimethyl-1-(1,2,4-triazol-1-yl)-butan-2-ol] | 2 mg/L (≈ 6.14 µM) | < 1 mg/L | < 1 mg/L | < 1 mg/L | < 1 mg/L | – | ++++ (gute Wirkung = 80 % Überlebende am 6.Tag p.i.) | bessere Wirkung | –
9 | C=CC(C)(C)C(O)(COc1ccc(Cl)cc1Cl)Cn1cncn1 (stereo not shown) [Beispiel 23] | 4 mg/L (≈ 11.2 µM) | < 1 mg/L | 4 mg/L (≈ 11.2 µM) | 8 mg/L (≈ 22.5 µM) | < 1 mg/L | – | + (Spur Wirkung = unter 40 % Überlebende am 6.Tag p.i.) | bessere Wirkung | –
10 | CC(C)(Oc1ccc(Cl)cc1Cl)C(O)(CCc1ccc(Cl)cc1)Cn1cncn1 (stereo not shown) [Beispiel 30] | 8 mg/L (≈ 17.6 µM) | 16 mg/L (≈ 35.2 µM) | 4 mg/L (≈ 8.8 µM) | 64 mg/L (≈ 141 µM) | < 1 mg/L | – | – | – | –
11 | CC(C)(CF)C(O)(CSc1ccc(Cl)c(Cl)c1)Cn1cncn1 (stereo not shown) [Beispiel 12] | < 1 mg/L | < 1 mg/L | < 1 mg/L | 2 mg/L (≈ 5.29 µM) | < 1 mg/L | – | ++++ (gute Wirkung = 80 % Überlebende am 6.Tag p.i.) | bessere Wirkung | –
12 | CC(C)(COc1ccc(Cl)cc1)C(O)(COc1ccc(Cl)cc1)Cn1cncn1 (stereo not shown) [Beispiel 19] | 2 mg/L (≈ 4.58 µM) | 8 mg/L (≈ 18.3 µM) | < 1 mg/L | 2 mg/L (≈ 4.58 µM) | < 1 mg/L | – | – | – | –
13 | CC(C)(COc1ccc(Cl)cc1)C(O)(CCc1ccc(Cl)cc1)Cn1cncn1 (stereo not shown) [Beispiel 29] | 2 mg/L (≈ 4.6 µM) | 16 mg/L (≈ 36.8 µM) | < 1 mg/L | 2 mg/L (≈ 4.6 µM) | < 1 mg/L | – | – | – | –
14 | CC(C)(COc1ccc(Cl)cc1Cl)C(O)(CCc1ccc(Cl)cc1)Cn1ccnc1 (stereo not shown) [Beispiel 35] | < 1 mg/L | 4 mg/L (≈ 8.55 µM) | < 1 mg/L | < 1 mg/L | < 1 mg/L | – | – | – | –
15 | CC(CF)(CF)C(O)(COc1ccc(Cl)cc1)Cn1ccnc1 (stereo not shown) [Beispiel 31] | – | – | – | – | – | +++ | ++++ (gute Wirkung = 80 % Überlebende am 6.Tag p.i.) | bessere Wirkung | Wirkung bis gute Wirkung
16 | COCC(C)(C)C(O)(COc1ccc(F)cc1)Cn1cncn1 (stereo not shown) [Beispiel 20] | 2 mg/L (≈ 6.18 µM) | < 1 mg/L | 32 mg/L (≈ 99 µM) | 8 mg/L (≈ 24.7 µM) | 2 mg/L (≈ 6.18 µM) | – | – | – | –

More lines, main results first:

Row | MIC (Torulopsis glabrata) | MIC (Candida albicans) | MIC (Aspergillus fumigatus) | MIC (Microsporum canis) | MIC (Trichophyton mentagr.) | Compound | Wirkung [1, 2] | Wirkung (Candida-Zellen) | Wirkung compared with known compounds (A), (B), (C) and (D) (Candida-Zellen) | Wirkung ([1]; local treatment, trichophytosis model)
17 | 4 mg/L (≈ 13 µM) | < 1 mg/L | 2 mg/L (≈ 6.51 µM) | 4 mg/L (≈ 13 µM) | 2 mg/L (≈ 6.51 µM) | Cc1ccc(OCC(O)(Cn2cncn2)C(C)(C)CF)cc1 (stereo not shown) [Beispiel 6] | – | – | – | –
18 | 2 mg/L (≈ 5.34 µM) | < 1 mg/L | 8 mg/L (≈ 21.4 µM) | 2 mg/L (≈ 5.34 µM) | < 1 mg/L | COCC(C)(C)C(O)(COc1ccc(Cl)cc1Cl)Cn1cncn1 (stereo not shown) [Beispiel 16] | – | – | – | –
19 | < 1 mg/L | < 1 mg/L | < 1 mg/L | < 1 mg/L | < 1 mg/L | CC(C)(Oc1ccc(Cl)cc1)C(O)(CCc1ccc(Cl)cc1)Cn1ccnc1 (stereo not shown) [Beispiel 34] | – | – | – | –
20 | 8 mg/L (≈ 26.2 µM) | 4 mg/L (≈ 13.1 µM) | 4 mg/L (≈ 13.1 µM) | 8 mg/L (≈ 26.2 µM) | < 1 mg/L | C=CC(C)(C)C(O)(COc1ccc(F)cc1)Cn1cncn1 (stereo not shown) [Beispiel 24] | – | ++ (schwache Wirkung = 40 % Überlebende am 6.Tag p.i.) | bessere Wirkung | –
21 | 4 mg/L (≈ 11.3 µM) | < 1 mg/L | 4 mg/L (≈ 11.3 µM) | 4 mg/L (≈ 11.3 µM) | < 1 mg/L | CCOCC(C)(C)C(O)(COc1ccc(Cl)cc1)Cn1cncn1 (stereo not shown) [Beispiel 18] | – | – | – | –
22 | < 1 mg/L | 2 mg/L (≈ 5.63 µM) | 32 mg/L (≈ 90.1 µM) | 16 mg/L (≈ 45 µM) | < 1 mg/L | C=CC(C)(C)C(O)(COc1ccc(Cl)cc1Cl)Cn1ccnc1 (stereo not shown) [Beispiel 39] | – | ++ (schwache Wirkung = 40 % Überlebende am 6.Tag p.i.) | bessere Wirkung | –
23 | 2 mg/L (≈ 5.57 µM) | < 1 mg/L | 16 mg/L (≈ 44.5 µM) | 8 mg/L (≈ 22.3 µM) | 4 mg/L (≈ 11.1 µM) | CC(C)(CF)C(O)(CCc1ccc(Cl)cc1Cl)Cn1ccnc1 (stereo not shown) [Beispiel 38] | – | +++ (Wirkung = 60 % Überlebende am 6.Tag p.i.) | bessere Wirkung | –
24 | > 64 mg/L | 32 mg/L (≈ 111 µM) | > 64 mg/L | – | 32 mg/L (≈ 111 µM) | Cc1ccccc1OCC(O)(Cn1ccnc1)C(C)(C)C (stereo not shown) [(C), reference compound] | – | k.W. | – | –
25 | 32 mg/L (≈ 88 µM) | < 1 mg/L | < 1 mg/L | < 1 mg/L | < 1 mg/L | C=CC(C)(C)C(O)(COc1ccc(-c2ccccc2)cc1)Cn1cncn1 (stereo not shown) [Beispiel 4, 4-(4-Biphenylyloxymethyl)-3,3-dimethyl-4-hydroxy-5-(1,2,4-triazol-1-yl)-1-penten] | – | +++++ (sehr gute Wirkung = 90 % Überlebende am 6.Tag p.i.) | bessere Wirkung | –
26 | 16 mg/L (≈ 55.9 µM) | 2 mg/L (≈ 6.98 µM) | 64 mg/L (≈ 223 µM) | 16 mg/L (≈ 55.9 µM) | 8 mg/L (≈ 27.9 µM) | Cc1ccccc1CCC(O)(Cn1ccnc1)C(C)(C)C (stereo not shown) [(D), reference compound] | – | k.W. | – | –
27 | 8 mg/L (≈ 23.5 µM) | < 1 mg/L | 8 mg/L (≈ 23.5 µM) | 4 mg/L (≈ 11.8 µM) | 2 mg/L (≈ 5.89 µM) | COCC(C)(C)C(O)(COc1ccc(Cl)cc1)Cn1cncn1 (stereo not shown) [Beispiel 2] | – | – | – | –
28 | > 64 mg/L | 32 mg/L (≈ 111 µM) | 32 mg/L (≈ 111 µM) | 4 mg/L (≈ 13.8 µM) | 4 mg/L (≈ 13.8 µM) | Cc1ccccc1OCC(O)(Cn1cncn1)C(C)(C)C (stereo not shown) [(B), reference compound] | – | k.W. | – | –
